In the test the test system is von Bezold-Jarisch reflex evoked by 5-HT. Kind of test: Antagonism of the von Bezold-Jarisch reflex evoked by 5-HT in the anaesthetised rat. Type of test: in vivo. To be noted: anaesthetised male rats, compound intravenous, 5-HT usually 6 μg/kg i.v., heart rate changes, read-out: ED50 (concentration required to reduce the 5-HT-evoked response to 50% of the control response). On the procedure: Antagonism of the von Bezold-Jarisch reflex
The compounds were evaluated for antagonism of the von Bezold-Jarisch reflex evoked by 5-HT in the anaesthetised rat according to the following method:
Male rats 250-350 g, were anaesthetised with urethane (1.25 g/kg intraperitoneally) and blood pressure and heart rate recorded as described by Fozard J. R. et al., J. Cardiovasc. Pharmacol. 2, 229-245 (1980). A submaximal dose of 5-HT (usually 6 μg/kg) was given repeatedly by the intravenous route and changes in heart rate quantified. Compounds were given intravenously and the concentration required to reduce the 5-HT-evoked response to 50% of the control response (ED50) was then determined.

Each structure is given as a SMILES string.

Turning to `COc1cscc1NC(=O)N[C@H]1C[C@H]2CC[C@@H](C1)N2C` [Compound 5, (endo)-N-(8-Methyl-8-azabicyclo[3,2,1]oct-3-yl)-N'-(4-methoxythiophen-3-yl)urea], the ED50 amounted to 2 µg/kg.
In the case of `COc1ccsc1NC(=O)N[C@H]1C[C@H]2CC[C@@H](C1)N2C` [Compound 3, (endo)-N-(8-Methyl-8-azabicyclo[3,2,1]oct-3-yl)-N'-(3-methoxythiophen-2-yl)urea], the ED50 worked out at 1 µg/kg.
As for `COc1ncccc1NC(=O)N[C@H]1C[C@H]2CC[C@@H](C1)N2C` [Compound 1, (endo)-N-(8-Methyl-8-azabicyclo[3.2.1]oct-3-yl)-N'-(2-methoxy-pyrid-3-yl)urea], the figure is 7.5 µg/kg.
